This note sets out measurements from US6300501A, “Histidine-(N-benzyl glycinamide) inhibitors of protein farnesyl transferase” (Warner-Lambert Company, priority 1998, dated 2001).

pIC50: −log10 of the molar value. Like-named read-outs stand apart in the source and are kept apart here.

In test [1] the target is T1, SF9 affinity purified rat farnesyl protein transferase (Rattus norvegicus, UniProt Q02293+Q04631).
T1 construct: made in house; host or cells: Sf9 insect cells (baculovirus system inferred from b7)
Kind of test: PFT inhibitory activity (radiolabeled farnesyl pyrophosphate, streptavidin bead assay). Format: biochemical. The method, then:
The protein:farnesyl transferase (PFT) or farnesyl protein transferase (FPT) inhibitory activity of compounds of the present invention were assayed in HEPES buffer (pH 7.4) containing 5 mM potassium phosphate and 20 μM ZnCl2. The solution also contained 5 mM DTT (dithiothreitol), 5 mM MgCl2, and 0.1% PEG 8000. Assays were performed in 96 well plates (Wallec) and employed solutions composed of varying concentrations of a compound of the present invention in 100% DMSO (dimethylsulfoxide). Upon addition of both substrates, radiolabeled farnesyl pyrophosphate ([1^3 H], specific activity 15-30 Ci/mmol, final concentration 134 nM) and (biotinyl)-Ahe-Thr-Lys-Cys-Val-Ile-Met ([3aS[3a alpha, 4 beta, 6a alpha]-hexahydro-2-oxo-1H-thieno[3,4-d]imidazole-5-pentanoic acid]-[7-aminoheptanoic acid]-Thr-Lys-Cys-Val-Ile-Met) (Ahe is 7-aminoheptanoic acid, Thr is threonine, Lys is lysine, Cys is cysteine, Val is valine, Ile is isoleucine and Met is methionine) (final concentration 0.2 μM), the enzyme reaction was started by addition of SF9 affinity purified rat farnesyl protein transferase. After incubation at 30° C. for 30 minutes, the reaction was terminated by diluting the reaction 2.5-fold with a stop buffer containing 1.5 M magnesium acetate, 0.2 M H3 PO4, 0.5% BSA (bovine serum albumin), and strepavidin beads (Amersham) at a concentration of 1.3 mg/mL. After allowing the plate to settle for 30 minutes at room temperature, radioactivity was quantitated on a microBeta counter (Model 1450, Wallec). The assay was also carried out without 5 mM potassium phosphate.

Test [2] has as its system H61 cells: NIH transformed 3T3 H-ras cells. Put plainly: Clonogenic assay (6 well plates, soft agar). The class given is cell-based. The settings on record: for IC50: average obtained by additional tests, read-out: Clonogenic Assay IC50 (μM), number in parentheses; for pIC50: colonies counted after Day 13, read-out: Clonogenic Assay IC50. As to the method:
Clonoaenic Assay (6 well lates)
Sometime previous to setting up an actual test:
1. Make up 1.5% Bacto Agar in Milli-Q water and autoclave.
2. Make up 500 mL 2× DMEM-HG without phenol red by combining the following:
1 bottle DMEM base powder (Sigma D-5030)
Adjust pH to 7.1 with HCL; filter sterilize.
1. Set up makeshift water bath (beaker of water with thermometer, on hot plate) in the hood. Keep water temperature between 37° C. to 43° C.
2. […] 1.5% Bacto Agar for approximately 2 minutes on high, or until completely melted. Then let it cool somewhat before using it. (You can keep it from resolidifying by setting the bottle on the hot plate.) […]
3. Bottom Layer (0.6% agar) Top Layer (0.3% agar)
20% calf serum 20% calf serum
40% Bacto Agar (1.5%) 20% Bacto Agar (1.5%)
Depending on the volume of each layer needed, use either 50 mL conical tubes or 200 mL turnip tubes which can be floated in the "water bath".
4. Add 1 mL of bottom layer agar/medium to each well: deliver 1 mL warm agar/medium to a well; then using the tip of the pipet, spread the agar/medium around to completely cover the bottom. Repeat with next well.
5. Allow the plates to set at room temperature for about 5 minutes until the bottom layer solidifies.
6. Label sterile Falcon 2054 (12×75 mm) tubes and add appropriate volume of drug solutions into them.
7. Aliquot 4 AL of DMSO or drug solution per 1 mL of agar/medium to appropriate tubes; then add the agar/medium/cells to each tube. Always add 1 mL more than will actually be needed. Mix up and down in the pipet (gently); then deliver 1 mL to the center of each well. The upper layer is less viscous, so it will generally spread out over the bottom layer unaided. If necessary, rotate the plane of the plate gently to spread the top layer evenly over the bottom layer.
8. Let plates set for 5 or 10 minutes at room temperature to solidify, then put into 5% CO2, 37° C. incubator.
9. On Day 13, add 0.5 mL of INT (tetrazolium 1 mg/mL in Milli-Q H2 O, filter sterilized) and return plates to incubator.

The test system of test [3] is ras farnesylation in ras-transformed cells. Kind of test: Gel shift assay. Format: cell-based. The settings on record: for minimal effective concentration: ras-transformed cells, 18-hour incubation, read-out: Gel Shift (μM) MED (minimal effective dose to observe inhibition of ras farnesylation). The method, then:
Twenty-four hours after planting 2×10^6 ras-transformed cells per treatment condition, the farnesylation inhibitor is added at varying concentrations. Following an 18-hour incubation period, cells are lysed in phosphate-buffered saline containing 1% Triton X-100, 0.5% sodium deoxycholate, and 0.1% SDS (sodium dodecyl sulfate), pH 7.4 in the presence of several protease inhibitors (PMSF (phenylmethylsulfonylfluoride), antipain, leupeptin, pepstatin A, and aprotinin all at 1 μg/mL). Ras protein is immunoprecipitated from the supernatants by the addition of 3 μg v-H-ras Ab-2 (Y13-259 antibody from Oncogene Science). After overnight immunoprecipitation, 30 μL of a 50% protein G-Sepharose slurry (Pharmacia) is added followed by 45-minute incubation. Pellets are resuspended in 2× tris-glycine loading buffer (Novex) containing 5% β-mercaptoethanol and then denatured by 5 minutes boiling prior to electrophoresis on 14% Tris-glycine SDS gels. Using Western transfer techniques, proteins are transferred to nitrocellulose membranes followed by blocking in blocking buffer. Upon overnight incubation with primary antibody (pan-ras Ab-2 from Oncogene Science), an antimouse HRP (horse radish peroxidase) conjugate secondary antibody (Amersham) is employed for detection of the ras protein. Blots are developed using ECL(enhanced chemiluminescence) techniques (Amersham).

[4] abbreviates: HEPES buffer pH 7.4, without 5 mM potassium phosphate, read-out: IC50 (μM) Hepes.
The mark [5] stands for this setting: HEPES buffer pH 7.4 containing 5 mM potassium phosphate, read-out: IC50 (μM) 5 mM K3 PO4 -2.

T1 sequence (Q02293 whole entry, one chain of several): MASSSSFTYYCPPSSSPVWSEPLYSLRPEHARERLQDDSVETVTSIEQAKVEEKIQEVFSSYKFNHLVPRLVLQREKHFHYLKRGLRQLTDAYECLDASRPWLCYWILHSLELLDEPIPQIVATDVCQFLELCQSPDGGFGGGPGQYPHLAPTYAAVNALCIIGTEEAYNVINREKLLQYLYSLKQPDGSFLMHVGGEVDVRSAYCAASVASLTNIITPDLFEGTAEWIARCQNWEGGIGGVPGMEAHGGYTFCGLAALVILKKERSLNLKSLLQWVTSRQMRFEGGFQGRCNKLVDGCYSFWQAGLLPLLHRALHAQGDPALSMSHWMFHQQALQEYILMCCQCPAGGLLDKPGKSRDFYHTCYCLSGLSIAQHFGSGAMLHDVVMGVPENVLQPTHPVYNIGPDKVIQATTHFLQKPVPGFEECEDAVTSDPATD

As usually defined, the IC50 is the point on the concentration scale where inhibition reaches its midpoint. What is called pIC50 is the negative decadic logarithm of the IC50, by convention in mol/L. With `O=C(CN(Cc1ccc(OCc2ccccc2)cc1)C(=O)[C@H](Cc1c[nH]cn1)NC(=O)OCc1ccccc1)NCCOCc1ccccc1` [Example 1, (S)-N-[(Phenylmethoxy)carbonyl]-L-histidyl-N-[2-(phenylmethoxy)ethyl]-N. sup.2-[[4-(phenylmethoxy)phenyl]-methyl]alycinamide], the IC50 in test [1] (setting [4]) was found to be 7.7 µM; in test [1] (setting [5]), 0.26 µM; in test [2], 14.3 µM. In test [2], the pIC50 was 5.57. Moreover, the minimal effective concentration in test [3] is 1 µM.

Consider `CC(CNC(=O)CN(Cc1ccc(OCc2ccncc2)cc1)C(=O)[C@H](Cc1c[nH]cn1)NC(=O)OCc1ccccc1)c1ccccc1` (stereo partly drawn) [Example 34, (S)-(2-(1H-Imidazole-4-yl)-1-{[(2-phenyl-propyl-carbamoyl)-methyl]-[4-(pyridin-4-ylmethoxy)-benzyl]-carbamoyl}-ethyl)-carbamic Acid Benzyl Aster], for which the values for the IC50 in test [1] (setting [4]) and in test [1] (setting [5]) were 0.097 µM and 0.002 µM, respectively. In addition, the pIC50 in test [2] was 6.85. Also, in test [3], the minimal effective concentration worked out at 0.05 µM.

Regarding `CCC(CNC(=O)CN(Cc1ccc(OCc2ccccc2)cc1)C(=O)[C@H](Cc1c[nH]cn1)NC(=O)NCc1ccccc1)c1ccccc1` (stereo partly drawn) [Example 27, (S)-N-(4-Benzyloxy-benzyl)-2-(3-benzyl-ureido)-3-(1H-imidazole-4-yl)-N-[(2-phenyl-butylcarbamoyl)-methyl]-propionamide], the results for the IC50 in test [1] (setting [4]) and in test [1] (setting [5]) were 0.12 µM and 0.014 µM, respectively. Further, the pIC50 in test [2] (312 h) is less than 6.00. The minimal effective concentration in test [3] came to 0.2 µM.

With `CC(C)(CNC(=O)CN(Cc1cccnc1)C(=O)[C@H](Cc1c[nH]cn1)NC(=O)OCc1ccccc1)c1ccccc1` [Example 39, (S)-(2-(1H-Imidazole-4-yl)-1-{[(2-methyl-2-phenyl-propylcarbamoyl)-methyl]-pyridin-3-ylmethyl-carbamoyl}-ethyl)-carbamic Acid Benzyl Ester], the values for the IC50 in test [1] (setting [4]) and in test [1] (setting [5]) were 9.5 µM and 0.1 µM, respectively. Moreover, the pIC50 in test [2] (312 h) was less than 6.00. In addition, in test [3], the minimal effective concentration is greater than 0.2 µM.

On to `CCC(CNC(=O)CN(Cc1ccc(OCc2ccccc2)cc1)C(=O)[C@H](Cc1c[nH]cn1)NC(=O)OCc1ccccc1)c1ccccc1` (stereo partly drawn) [Example 16, (S)-[1-{(4-Benzyloxy-benzyl)-[(2-phenyl-butylcarbamoyl)-methyl]-carbamoyl}-2-(1H-imidazole-4-yl)-ethyl]-carbamic Acid Benzyl Ester], for which the IC50 amounted to 0.29 µM in test [1] (setting [4]) and 0.007 µM in test [1] (setting [5]). Also, the pIC50 in test [2] (312 h) was 6.40. Further, the minimal effective concentration in test [3] is 0.01 to 0.05 µM.

As for `O=C(CN(Cc1ccc(OCc2ccccc2)cc1)C(=O)[C@H](Cc1c[nH]cn1)NC(=O)OCc1ccccc1)NCC(c1ccccc1)c1ccccn1` (stereo partly drawn) [Example 12, (S)-[1-{(4-Benzyloxy-benzyl)-[(2-phenyl-2-pyridin-2-yl-ethylcarbamoyl)-methyl]-carbamoyl}-2-(1H-imidazole-4-yl)-ethyl]-carbamic Acid Benzyl Ester], the IC50 was 1.1 µM in test [1] (setting [4]) and 0.062 µM in test [1] (setting [5]). Further, the pIC50 in test [2] (312 h) is less than 6.00. In addition, in test [3], the minimal effective concentration turned out to be 0.2 µM.

For the compound `CC(C)(CNC(=O)CN(Cc1ccc(F)cc1)C(=O)[C@H](Cc1c[nH]cn1)NC(=O)OCc1ccccc1)c1ccccc1` [Example 22, (S)-[1-{(4-Fluoro-benzyl)-[(2-methyl-2-phenyl-propylcarbamoyl)-methyl]-carbamoyl}-2-(1H-imidazole-4-yl)-ethyl]-carbamic Acid Benzyl Ester], the half-maximal inhibitory concentration (IC50) came to 1.2 µM in test [1] (setting [4]) and 0.016 µM in test [1] (setting [5]). Also, the pIC50 in test [2] (312 h) is less than 6.00. Besides, in test [3], the minimal effective concentration was 0.2 µM.

Turning to `CC(CNC(=O)CN(Cc1ccc(OCc2ccccc2)cc1)C(=O)[C@H](Cc1c[nH]cn1)NC(=O)OCc1ccccc1)c1ccccc1Cl` (stereo partly drawn) [Example 32, (S)-[1-((4-Benzyloxy-benzyl)-{[2-(2-chloro-phenyl)-propylcarbamoyl]-methyl}-carbamoyl)-2-(1H-imidazole-4-yl)-ethyl]-carbamic Acid Benzyl Ester], the IC50 in test [1] (setting [4]) worked out at 0.32 µM; in test [1] (setting [5]) it was 0.007 µM. Further, in test [2] (312 h), the pIC50 is 6.44. Besides, the minimal effective concentration in test [3] is 0.05 µM.

On to `CC(C)(CNC(=O)CN(Cc1ccc(OCc2ccncc2)cc1)C(=O)[C@H](Cc1c[nH]cn1)NC(=O)OCc1ccccc1)c1ccccc1` [Example 49, (S)-(2-(1H-Imidazole-4-yl)-1-{[(2-methyl-2-phenyl-propylcarbamoyl)-methyl]-[4-(pyridin-4-ylmethoxy)-benzyl]-carbamoyl}-ethyl)-carbamic Acid Benzyl Ester], for which the IC50 came out at 0.06 µM in test [1] (setting [4]) and 0.009 µM in test [1] (setting [5]). Besides, the pIC50 in test [2] (312 h) was 7.00. Besides, the minimal effective concentration in test [3] was 0.05 µM.

On to `O=C(CN(Cc1ccc(OCc2ccccc2)cc1)C(=O)[C@H](Cc1c[nH]cn1)NC(=O)OCc1ccccc1)NCC(c1ccccc1)c1ccccc1` [Example 5, (S)-[1-[(4-Benzyloxy-benzyl)-[(2,2-diphenyl-ethylcarbamoyl)-methyl]-carbamoyl]-2-(1H-imidazole-4-yl)-ethvl]-carbamic Acid Benzyl Ester], for which the IC50 in test [1] (setting [4]) turned out to be 1.73 µM; in test [1] (setting [5]) it was 0.038 µM; in test [1] (without 5 mM potassium phosphate, average obtained by additional tests, read-out: IC50 (μM) Hepes, number in parentheses), 1.6 µM; in test [2], 2.5 µM. Also, the pIC50 in test [2] was 6.15. In test [3] (average obtained by additional tests), the “Gel Shift (μM) MED, number in parentheses” value turned out to be 0.05 µM. For the same compound, the minimal effective concentration in test [3] is 0.2 µM.

On to `Cc1ccc(CN(CC(=O)NCC(C)c2ccccc2)C(=O)[C@H](Cc2c[nH]cn2)NC(=O)OCc2ccccc2)cc1` (stereo partly drawn) [Example 19, (S)-(2-(1H-Imidazole-4-yl)-1-{(4-methyl-benzyl)-[(2-phenyl-propylcarbamoyl)-methyl]-carbamoyl}-ethyl)-carbamic Acid Benzyl Ester], for which the IC50 in test [1] (setting [4]) came out at 1.26 µM; in test [1] (setting [5]) it was 0.015 µM. Moreover, the pIC50 in test [2] (312 h) is 6.18. Moreover, the minimal effective concentration in test [3] was 0.05 µM.

Take `CC(CNC(=O)CN(Cc1ccc(OCc2ccccc2)cc1)C(=O)[C@H](Cc1cnc[nH]1)NC(=O)OCc1ccccc1)c1ccccc1N` (stereo partly shown) [Example 21]: the IC50 came out at 0.16 µM in test [1] (setting [4]) and 0.008 µM in test [1] (setting [5]). In test [2], the pIC50 was 6.52. The minimal effective concentration in test [3] was 0.05 µM.
